“Also recorded” adds a separate entry of the source. Each block holds one molecule with its values, some of them ahead of it.
Tests used:
E17 hippocampal neurons = test: Aβ-induced death of hippocampal neurons; type: cell-based; settings: for protection against Aβ1-42-induced death: NGF at 100 pg/ml
Experimental: Using previously well established protocols, Aβ was preincubated for 3 days in water to allow formation of oligomers. E17 hippocampal neurons were incubated for 5 days to allow for maturation prior to addition of Aβ with test compounds.

p75^NTR−/− cells = test: Survival of p75NTR+/+ versus p75NTR-/- hippocampal neurons; type: cell-based, mouse; settings: neurotrophins 1.8 nM, compounds 5 nM
Experimental: (§1) Hippocampal neurons were prepared from E16-17 mouse embryos as previously described (Yang. T. et al. (2003) J Neurosci 23, 3353-3363). […] For studies employing p75^NTR+/+ and p75^NTR−/− neurons, mice carrying a mutation in exon 3 of the p75^NTR gene (Lee, K. F. et al. (1992) Cell 69, 737-749) were bred onto a B6 congenic background (>10 B6 backcrosses).
(§2) After 48 hours in culture, cell survival was assessed as previously described (Longo, F. M., Manthorpe. M., Xie. Y. M., Varon, S. (1997) J Neurosci Res 48, 1-17) using a combination of standard morphological criteria along with visual determination of whether a given cell converted MTT to its blue formazan product. The number of surviving neurons was determined by counting the total number of cells in each well that were both morphologically intact and filed with blue product (Longo F. M., Manthorpe. M., Xie, Y. M., Varon, S. (1997) J Neurosci Res 48, 1-17). For each neurotrophin or compound concentration, duplicate wells were counted and the resulting values averaged. Activity of each compound was confirmed by blinded counts. Counts were normalized to survival achieved with 25 ng/ml BDNF or to baseline survival. Fitting of dose-responsive curves was performed with Sigmaplot obtained from SYSTAT Software Inc. (Richmond, Calif., United States of America).
(§3) For all studies applying signaling inhibitors, p75^NTR antibodies or p75^NTR−/− neurons, survival was assessed at 48 hours.

[1] = test system: E16-17 mouse hippocampal neurons; test: Hippocampal neuron survival (morphology plus MTT conversion); type: cell-based; settings: 5 nM compound along with 50 ng/ml NGF
Experimental: as §1, §2

NFκB-p65 = NFκB-p65 phosphorylation western blot in hippocampal cultures; type: cell-based, mouse; settings: 20 nM
Experimental: (§4) For assays of Trk, AKT, NFκB, and ERK activation, hippocampal neurons derived from E16-17 mice were cultured in poly-L-lysine coated six-well plates (Corning, Inc., Corning, N.Y., United States of America) in DMEM containing 10% FBS, followed by incubation in serum-free DMEM for 2 hours before addition of neurotrophins or compounds. At the indicated time points, neurons were harvested in lysis buffer consisting of: 20 mM Tris, pH 8.0, 137 mM NaCl, 1% Igepal CA-630, 10% glycerol, 1 mM PMSF, 10 μg/ml aprotinin, 1 μg/ml leupeptin, 500 μM orthovanadate (Zhou, J., Valletta, J. S., Grimes, M. L., Mobley, W. C. (1995) J Neurochem 65, 1146-1156).
(§5) Lysates were centrifuged, the supernatant collected, and protein concentrations determined using the BCA Protein Assay Reagent obtained from Pierce (Rockford, Ill., United States of America). Western blots were performed as described previously (Yang, T. et al. (2003) J Neurosci 23, 3353-3363). Western blot signals were detected using the ECL Chemiluminescence System obtained by Amersham (Piscataway, N.J., United States of America) (Yang, T. et al. (2003) J Neurosci 23, 3353-3363).

p75^NTR-Fc = molecular target: T1, p75^NTR-Fc (Homo sapiens, UniProt P08138); test: NGF/p75NTR-Fc binding by NGF ELISA, Gaddum/Schild fit
T1 construct: purchased R&D Systems
Experimental: (§6) Briefly, 96-well plates were incubated with 0.1 pmol (at 1 nM) of p75/Fc or TrkA/Fc recombinant protein obtained from R&D System (Minneapolis, Minn., United States of America) overnight at 4° C. followed by incubation with blocking buffer for 1 hour at room temperature. […] Plates were then washed five times with Tris-buffered saline (TBS) containing 0.05% Tween-20 and incubated with anti-NGF rabbit polyclonal antibody overnight at 4° C. Following five washes with TBS, wells were incubated for 2.5 hours at room temperature with anti-rabbit IgG HRP conjugate and washed five times. 3,3′,5,5′-tetramethyl-benzidine substrate was added and the optical density measured at 450 nm.
A regression analysis of NGF-p75^NTR binding in the presence of the p75-binding compounds was performed. The data was fit using the Nonlinear Regression module of Sigmaplot, to a modification of the Gaddum/Schild equation (adapted from Motulsky, H. J., and Christopoulos. A. (2003) A Practical Guide to Curve Fitting, 2nd edn. (San Diego, Calif., GraphPad Software, Inc.): […]

mature oligodendrocytes = test: Oligodendrocyte cell death assay (MBP/TUNEL) with or without proNGF; type: cell-based, rat; settings: 24 h
Experimental: Cortical oligondendrocytes from rat pups were prepared as previously described (Yoon et al. (1998) J Neurosci 18, 3273-3281, Harrington, A. W., Kim, J. Y., Yoon, S. O. (2002) J Neurosci 22, 156-166). Cells were treated with recombinant, cleavage-resistant proNGF at 0.05 nM (2.8 ng/ml). Controls were treated with equivalent volumes of proNGF purification buffer containing 350 mM imidazole. 24 hours after treatment, the cells were fixed and processed for MBP and TUNEL staining as previously described (Beattie, M. S. et al. (2002) Neuron 36, 375-386). 200-250 cells were counted per well, for a minimum of 600 cells per experimental condition.

TrkA-Fc = test: NGF/TrkA-Fc binding by NGF ELISA; settings: up to 10,000 nM compound
Experimental: as §6

AKT = AKT activation western blot in hippocampal cultures; type: cell-based, mouse
Experimental: as §4, §5

hippocampal neurons [2] = test: Hippocampal neuron survival with signaling pathway inhibitors; type: cell-based, mouse; settings: BDNF/NGF 25 ng/ml, compounds 5 nM, 48 h; for effect of PD98059 (ERK inhibitor) on survival promoted by the substance: PD98059 50 μM
Experimental: as §1, §2, §3

p75^NTR = molecular target: T2, p75^NTR (Homo sapiens, UniProt P08138); test: proNGF binding to p75NTR by ELISA; settings: 100 ng/ml proNGF
T2 construct: purchased R&D Systems
Experimental: as §6

hippocampal neurons [3] = test: Hippocampal neuron survival with p75NTR antisera (antibody inhibition); type: cell-based, mouse; settings: antiserum 1:100, 48 h
Experimental: as §1, §2, §3

ERK42 = ERK42 activation western blot in hippocampal cultures; type: cell-based, mouse; settings: compounds 20 nM, BDNF/NGF 50 ng/ml; 10 and 30 min
Experimental: as §4, §5

TrkB = molecular target: T3, TrkB (Mus musculus, UniProt P15209); test: Trk Y490 phosphorylation western blot in hippocampal neuron cultures; type: cell-based; settings: 10 or 30 minutes
T3 construct: endogenous in cells; host or cells: primary hippocampal neurons from E16-17 mouse embryos
Experimental: as §4, §5

T1 sequence (P08138 with tags, fused parts or gaps limits assumed): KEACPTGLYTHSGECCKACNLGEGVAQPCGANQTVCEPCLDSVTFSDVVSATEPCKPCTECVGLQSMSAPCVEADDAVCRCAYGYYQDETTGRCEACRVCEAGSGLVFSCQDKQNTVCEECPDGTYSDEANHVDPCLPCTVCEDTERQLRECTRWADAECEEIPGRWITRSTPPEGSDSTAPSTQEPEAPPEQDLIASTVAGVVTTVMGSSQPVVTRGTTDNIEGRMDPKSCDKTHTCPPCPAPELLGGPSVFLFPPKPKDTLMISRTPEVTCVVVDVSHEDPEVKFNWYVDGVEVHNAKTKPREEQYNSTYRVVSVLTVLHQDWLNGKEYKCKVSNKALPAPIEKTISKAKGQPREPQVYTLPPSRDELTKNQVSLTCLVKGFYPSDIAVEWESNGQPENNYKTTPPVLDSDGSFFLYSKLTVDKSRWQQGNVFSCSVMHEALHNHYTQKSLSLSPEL
T2 sequence (P08138 with tags, fused parts or gaps limits assumed): as above
T3 sequence (P15209 32-821): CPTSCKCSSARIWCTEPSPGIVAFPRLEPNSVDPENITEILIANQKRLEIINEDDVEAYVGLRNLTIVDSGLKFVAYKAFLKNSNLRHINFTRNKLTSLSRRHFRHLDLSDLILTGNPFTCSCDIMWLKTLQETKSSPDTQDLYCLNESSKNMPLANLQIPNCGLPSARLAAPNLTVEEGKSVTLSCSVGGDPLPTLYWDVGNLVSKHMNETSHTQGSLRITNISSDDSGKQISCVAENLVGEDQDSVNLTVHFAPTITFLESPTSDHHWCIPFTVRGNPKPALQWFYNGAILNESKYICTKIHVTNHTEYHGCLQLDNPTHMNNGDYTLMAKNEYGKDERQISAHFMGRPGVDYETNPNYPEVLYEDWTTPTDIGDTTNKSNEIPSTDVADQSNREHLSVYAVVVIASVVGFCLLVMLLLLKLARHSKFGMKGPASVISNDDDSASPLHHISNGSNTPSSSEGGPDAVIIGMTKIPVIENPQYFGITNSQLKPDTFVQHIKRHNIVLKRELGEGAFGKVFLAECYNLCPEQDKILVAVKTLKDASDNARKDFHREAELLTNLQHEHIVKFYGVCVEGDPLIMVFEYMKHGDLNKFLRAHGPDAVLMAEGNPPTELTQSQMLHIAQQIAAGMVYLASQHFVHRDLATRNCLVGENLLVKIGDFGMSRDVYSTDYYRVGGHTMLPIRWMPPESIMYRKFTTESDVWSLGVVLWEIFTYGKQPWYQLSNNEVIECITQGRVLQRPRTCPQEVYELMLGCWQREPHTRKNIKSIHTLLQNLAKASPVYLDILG

Molecule: Aβ1-42: amyloid-β, preincubated for 3 days in water to allow formation of oligomers [reference compound]
loss of neurons (E17 hippocampal neurons; Aβ1-42 10 μM or 30 μM, 3 day exposure, no compound): ~40%

Molecule: Cn1c(=O)c2c(ncn2CC(=O)NCc2ccco2)n(C)c1=O [Compound 6]
protection against Aβ1-42-induced death (E17 hippocampal neurons; Aβ1-42 10 μM): failed to block

compound concentration at which binding curve differs from 0 nM curve (P<0.0001) (p75^NTR-Fc; ANOVA with post-hoc Bonferroni/Dunn): ≥ 125 nM | Schild coefficient (p75^NTR-Fc; Gaddum-Schild fit): 0.26 +/−0.01 | shift of the NGF/p75NTR-Fc binding curve (p75^NTR-Fc; increasing compound concentrations): significantly to the right | proNGF ELISA signal versus proNGF alone (p75^NTR; P<0.01): significantly less than proNGF alone | decrement of proNGF binding to p75NTR (p75^NTR; at the highest concentration (range 1500 nM to 10,000 nM)): approximately 30%
Molecule: CN(C)CCCNC(=O)Cn1cnc2c1c(=O)n(C)c(=O)n2C [Compound 3]
effect of p75NTR-deficiency on promotion of neuron survival by the substance (p75^NTR−/− cells): completely inhibits | protection against Aβ1-42-induced death (E17 hippocampal neurons; Aβ1-42 10 μM): blocks Aβ-induced death with a dose-response effect | EC50 (E17 hippocampal neurons; Hippocampal neuron, Aβ1-42 10 μM, read-out: EC50 for blocking Aβ-induced death): ~10 nM | additive effect on survival with NGF [1]: no additive effect on survival | increase in NFκB-p65 phosphorylation (NFκB-p65): approximately 1.5 fold | inhibition of proNGF-induced oligodendrocyte death (mature oligodendrocytes; 2.8 ng/ml (0.05 nM) proNGF): significantly inhibited; also recorded: blocked cell death | promotion of oligodendrocyte cell death by compound alone (mature oligodendrocytes; absence of proNGF): did not promote cell death | effect on NGF binding to TrkA-Fc (TrkA-Fc): did not affect; also recorded: no compound effects up to 10,000 nM | onset of AKT activation (AKT; 20 nM, relative to NGF): slower than that of NGF | effect of PD98059 (ERK inhibitor) on survival promoted by the substance (hippocampal neurons [2]): no significant decrease | effect of SN50 (NFκB translocation inhibitor) on survival promoted by the substance (hippocampal neurons [2]; SN50 2.5 μg/ml): significantly reduced | effect of Ab 9651 on promotion of neuron survival by the substance (hippocampal neurons [3]): completely blocked; also recorded: completely inhibits | survival versus CM in the presence of Ab 9651 (hippocampal neurons [3]): not significant

B1: BDNF: brain-derived neurotrophic factor from Sigma-Aldrich (protein, UniProt P23560 19-247, looked up)
Neurotrophic factor BDNF …: APMKEANIRGQGGLAYPGVRTHGTLESVNGPKAGSRGLTSLADTFEHVIEELLDEDQKVRPNEENNKDADLYTSRVMLSSQVPLEPPLLFLLEEYKNYLDAANMSMRVRRHSDPARRGELSVCDSISEWVTAADKKTAVDMSGGTVTVLEKVPVSKGQLKQYFYETKCNPMGYTKEGCRGIDKRHWNSQCRTTQSYVRALTMDSKKRIGWRFIRIDTSCVCTLTIKRGR
effect of p75NTR-deficiency on promotion of neuron survival by the substance (p75^NTR−/− cells): partial responsiveness; also recorded: partially inhibits | survival in p75NTR−/− cultures, comparison of treatments (p75^NTR−/− cells): greater survival than NGF | ERK42 activation (ERK42): greater with BDNF and NGF treatment than with the p75-binding compounds; also recorded: prolonged activation | TrkB activation (Trk Y490 phosphorylation) (TrkB): robust Trk activation; also recorded: activated TrkB | AKT activation (AKT; compounds 20 nM, BDNF/NGF 50 ng/ml, 10 and 30 min): substantially greater response | effect of PD98059 (ERK inhibitor) on survival promoted by the substance (hippocampal neurons [2]): significantly decreased; also recorded: small effects | effect of Ab 9651 on promotion of neuron survival by the substance (hippocampal neurons [3]): partially blocked; also recorded: partially inhibits | survival versus CM in the presence of Ab 9651 (hippocampal neurons [3]): significantly greater than CM+Ab 9651
